In general, Ki refers to a dissociation constant, usually derived from enzyme kinetics or from competition with a known ligand.

One compound from US20040122076A1, “Sulphonamides for the treatment of central nervous system diseases” (priority 2000, published 2004) can be followed below.

The target in this experiment is T1, human recombinant 5-HT6 receptors (Homo sapiens, UniProt P50406).
T1 construct: purchased Receptor Biology, Inc., Beltsville Md; 20705, USA RB-HS6; host or cells: HEK293 cells (membranes)
As to the kind of experiment: Binding to human recombinant 5-HT6 receptors ([3H]-LSD displacement, HEK293 membranes). Particulars: [3H]-LSD 1 nM, membranes of HEK293 cells, 1 hour at 37° C.; Ki=IC50/(1+L/KD). The method, then:
1. Binding to Human Recombinant 5-HT6 Receptors
The binding of the compounds according to the invention to human recombinant 5-HT6 receptors can be determined as follows. Membranes of HEK293 cells which express human recombinant 5-HT6 receptors (RB-HS6, Receptor Biology, Inc., Beltsville Md. 20705, USA) were suspended in the ratio 1:40 in ice-cold sample buffer consisting of 50 mM tris HCl, 5 mM MgCl2, 0.5 mM EDTA; 0.1% ascorbic acid and 10 μM pargyline (pH 7.4) and homogenized (Polytron). 100 μl of membrane suspension, 50 μl of [^3H]-LSD (specific activity 75 Ci/mmol, final concentration […]) and 50 μl of test substance solution (8 different concentrations, 10^−5 to 10^−9 M) were incubated for 1 hour at 37° C. and the [^3H]-LSD bound to the receptor was then separated from the free [^3H]-LSD by filtration. The radioactivity retained by the filter was determined by scintillation spectroscopy. All tests were carried out in triplicate determinations. The IC50 values were calculated using the program GraphPadPrism (Hill equation, special: one-site competition). The inhibition constant of the test substance Ki was determined from the IC50 value of the compounds (concentration of the test substance at which 50% of the ligand bound to the receptor is displaced), the dissociation constant KD and the concentration L of [^3H]-LSD (Ki=IC50/(1+L/KD)).

T1 sequence (P50406 whole entry): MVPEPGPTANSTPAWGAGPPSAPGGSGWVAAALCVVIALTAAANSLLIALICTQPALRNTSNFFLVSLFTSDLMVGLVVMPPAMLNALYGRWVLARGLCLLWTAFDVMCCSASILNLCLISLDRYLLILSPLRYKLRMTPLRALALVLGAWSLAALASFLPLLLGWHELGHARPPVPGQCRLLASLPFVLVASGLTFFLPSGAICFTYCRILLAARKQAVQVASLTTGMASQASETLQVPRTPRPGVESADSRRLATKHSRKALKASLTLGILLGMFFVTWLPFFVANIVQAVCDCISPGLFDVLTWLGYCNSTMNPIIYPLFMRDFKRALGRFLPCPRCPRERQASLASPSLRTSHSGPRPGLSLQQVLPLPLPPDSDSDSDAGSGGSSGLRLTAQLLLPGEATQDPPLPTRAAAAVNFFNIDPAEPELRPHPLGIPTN

Take `CCn1ccc2ccc(S(=O)(=O)Nc3cccc(NC(=O)C(C)(C)C)c3)cc21` [Example 44]: the inhibition constant Ki was 0.012 µM.
